We go through one molecule from ChEMBL document CHEMBL4673185 (RSC Med Chem, 2020).

Residues, ends and D or L forms follow the SMILES beside them.

The assay has as its target T1, Acid-sensing ion channel 3 (Rattus norvegicus, UniProt O35240).
T1 sequence (O35240 whole entry): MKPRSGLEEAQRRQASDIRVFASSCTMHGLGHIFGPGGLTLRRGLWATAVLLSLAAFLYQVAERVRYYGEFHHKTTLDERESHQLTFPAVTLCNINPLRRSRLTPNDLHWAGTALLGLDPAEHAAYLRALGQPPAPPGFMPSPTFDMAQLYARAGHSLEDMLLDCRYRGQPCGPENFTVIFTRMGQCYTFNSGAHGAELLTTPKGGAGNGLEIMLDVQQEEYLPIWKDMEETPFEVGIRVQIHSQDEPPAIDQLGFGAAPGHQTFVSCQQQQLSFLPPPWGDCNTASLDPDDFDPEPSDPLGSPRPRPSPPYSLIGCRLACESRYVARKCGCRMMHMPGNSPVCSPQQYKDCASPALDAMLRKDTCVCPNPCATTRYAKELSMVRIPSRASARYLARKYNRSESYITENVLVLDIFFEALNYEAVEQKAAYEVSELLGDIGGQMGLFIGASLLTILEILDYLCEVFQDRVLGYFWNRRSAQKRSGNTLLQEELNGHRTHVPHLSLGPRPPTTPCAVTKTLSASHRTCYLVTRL
The assay is described as follows: Modulation of rat ASIC3 expressed in Xenopus laevis oocytes at -70 mV holding potential by two-electrode voltage clamp method. The class given is cell-based. On the technique in general: In two-electrode clamp one electrode senses voltage and the other passes current.

Broadly, the EC50 is the concentration giving half of the maximal effect. Low values mean greater potency, high ones weaker potency. Consider `N=C(N)NCCC[C@H](NC(=O)[C@@H]1CCCN1C(=O)[C@@H](N)CCCNC(=N)N)C(=O)N[C@@H](Cc1ccccc1)C(=O)O` (H-RPRF-OH), for which the response was half-maximal at 3 µM (EC50).
